Reference: patent publication US7202261B2, “Calcilytic compounds” (NPS Pharmaceuticals, Inc., priority 1996, dated 2007)
Where a name gives a salt, the structure may show the parent alone.

Test system: dissociated bovine parathyroid cells
Assay: Stimulation of PTH secretion
Type: cell-based
Settings: Bos taurus, 0.5 h, 0.5 mM Ca2+, 30 minutes
Description: This example illustrates the ability of different calcilytic compounds to exert a biological effect on PTH secretion. PTH secretion was determined using dissociated bovine parathyroid cells as described below for Compounds 32, 33, and 38. […] Stimulation of PTH secretion was assayed as follows: Parathyroid cell buffer (PCB) contains (mM): NaCl, 126; KCl, 4; MgSO4, 1; K2HPO4/KH2PO4, 0.7; Na-Hepes, pH 7.45, and variable amounts of CaCl2 as specified (reagent grade). PCB was typically supplemented with bovine serum albumin (BSA fraction V; ICN Biomedicals, Inc., Costa Mesa, Calif.; catalog #81-003) and 1 mg/mL of D-glucose (reagent grade) as indicated. Percoll purification buffer was prepared immediately before use by mixing 8 mL of Percoll (Pharmacia LKB, Alameda, Calif.; catalog #17-0891-01) and 7 mL of a twice-concentrated PCB solution without phosphate and containing 2 mM CaCl2. Parathyroid glands were obtained from calves within minutes of slaughter at an abattoir and shipped via overnight express on ice in PCB containing 1.25 mM CaCl2. The glands were trimmed and minced in ice-cold PCB containing 1.25 mM CaCl2, 1 mg/mL of D-glucose, and 2% BSA. […]

| EC50 [µM] | Compound |
| --- | --- |
| < 10 | COc1ccc(CC(C)(C)NC[C@@H](O)COc2ccccc2)cc1 (single isomer, unassigned) [Compound 32, (R) or (S)—N-(2-Hydroxy-3-phenoxypropyl)-1,1-dimethyl-2-(4-methoxyphenyl)ethylamine Hydrochloride] |
| < 10 | COc1ccc(CC(C)(C)NCC(O)COc2cccc(OC)c2)cc1 (centres unmarked) [Compound 38, N-[2-Hydroxy-3-(3-methoxyphenoxy)propyl]-1,1-dimethyl-2-(4-methoxyphenyl)ethylamine Hydrochloride] |
